Our source for the GI50 and TGI values is PubChem BioAssay (NCI).

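Step 1: Grow cells in 96-well plates. Step 2: Expose to compound for 48 hours at 5 concentrations. Step 3: Interpolate endpoints linearly; if unreached, use highest concentration. GI50 = concentration required for 50% inhibition of growth. TGI marks complete inhibition of growth.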

Test systems include CCRF-CEM leukemia; COLO 205 colon; K-562 leukemia; OVCAR-4 ovarian; RPMI-8226 leukemia; SF-295 CNS; SK-MEL-5 melanoma; SNB-19 CNS; UACC-257 melanoma; EKVX NSCLC.
Test in all cases: DTP human tumour cell line panel, 48 h

Consider `CCOC(=O)Nc1ccc2nc(-c3cscn3)[nH]c2c1`, for which the GI50 in the assay with CCRF-CEM leukemia is 7.01 µM; with COLO 205 colon it was 3.64 µM; with K-562 leukemia it was 0.942 µM; in the assay on OVCAR-4 ovarian it was 48.9 µM; with RPMI-8226 leukemia, 4.6 µM; with SF-295 CNS, 4.78 µM. The GI50 in the assay on SK-MEL-5 melanoma is 3.33 µM; in the assay with SNB-19 CNS, 5.73 µM; in the assay on UACC-257 melanoma it was 5.21 µM. For the same molecule, the TGI was above 100 µM in the assay on CCRF-CEM leukemia; 18.9 µM with COLO 205 colon; above 100 µM with K-562 leukemia; above 100 µM in the assay on OVCAR-4 ovarian; above 100 µM in the assay with RPMI-8226 leukemia; 57.6 µM in the assay on SF-295 CNS. The TGI in the assay on SK-MEL-5 melanoma was above 49.1 µM; in the assay with SNB-19 CNS it was above 100 µM; with UACC-257 melanoma, above 100 µM.
As for `COc1ccc(-c2ccc(C3CC(c4ccccc4)=NN3)o2)c([N+](=O)[O-])c1` (stereo unspecified), the GI50 with CCRF-CEM leukemia was 23.2 µM; in the assay with COLO 205 colon it was 52.9 µM; with EKVX NSCLC, 49.2 µM; in the assay with K-562 leukemia it was 34.5 µM; with OVCAR-4 ovarian it was 43.5 µM; in the assay on RPMI-8226 leukemia it was 31 µM. The results for the GI50 in the assay on SF-295 CNS and in the assay on SNB-19 CNS were 28.6 µM and 86.2 µM, respectively. Moreover, the TGI is 72.2 µM in the assay with CCRF-CEM leukemia; above 100 µM in the assay on COLO 205 colon; above 100 µM in the assay with EKVX NSCLC; above 100 µM in the assay with K-562 leukemia; above 100 µM in the assay on OVCAR-4 ovarian; above 100 µM in the assay with RPMI-8226 leukemia. Also, the TGI in the assay with SF-295 CNS and in the assay on SNB-19 CNS was above 100 µM in each case.
For `O=C1NC(=NCCc2ccc(Cl)cc2)S/C1=C\c1ccc2ncccc2c1`, the GI50 is 12.5 µM with CCRF-CEM leukemia; 15.3 µM in the assay with COLO 205 colon; above 25 µM in the assay on K-562 leukemia; 8.94 µM in the assay on OVCAR-4 ovarian; above 23 µM in the assay with RPMI-8226 leukemia; 24.4 µM with SF-295 CNS. Further, the GI50 in the assay on SK-MEL-5 melanoma is 15.8 µM; in the assay with SNB-19 CNS, above 25 µM; in the assay on UACC-257 melanoma, above 25 µM. For the same molecule, the TGI in the assay with CCRF-CEM leukemia, with COLO 205 colon, with K-562 leukemia, in the assay with OVCAR-4 ovarian, in the assay on RPMI-8226 leukemia and in the assay with SF-295 CNS was above 25 µM in each case. In addition, the TGI in the assay with SK-MEL-5 melanoma, in the assay on SNB-19 CNS and in the assay on UACC-257 melanoma was above 25 µM throughout.
Turning to `CC(=O)N1[C@H](C(=O)O)CS[C@H]1c1ccc(F)cc1`, the concentration for total growth inhibition (TGI) in the assay on CCRF-CEM leukemia, in the assay on COLO 205 colon, with K-562 leukemia, with OVCAR-4 ovarian, in the assay with SF-295 CNS and with SK-MEL-5 melanoma was above 100 µM each time. Further, the TGI in the assay with SNB-19 CNS and in the assay on UACC-257 melanoma was above 100 µM in each case.
On to `COc1cc2c(cc1OCCNC(=O)/C=C1\C[C@H]3C=Nc4cc(OCc5ccccc5)c(OC)cc4C(=O)N3C1)N=C[C@@H]1CCCN1C2=O`, for which the GI50 in the assay on COLO 205 colon was 14.9 µM; in the assay with EKVX NSCLC, 36.8 µM; in the assay on K-562 leukemia it was 2.78 µM; in the assay on OVCAR-4 ovarian, 19.7 µM; with RPMI-8226 leukemia, 1.18 µM; in the assay with SF-295 CNS it was 18.3 µM. Also, the GI50 was 1.3 µM in the assay with SK-MEL-5 melanoma and 8.62 µM in the assay on SNB-19 CNS. Besides, the TGI in the assay with COLO 205 colon is 68.5 µM; in the assay with EKVX NSCLC, 81.6 µM; in the assay with K-562 leukemia, 13.6 µM; with OVCAR-4 ovarian it was 65.5 µM; in the assay with RPMI-8226 leukemia, 2.74 µM; in the assay on SF-295 CNS, above 100 µM. Moreover, the TGI with SK-MEL-5 melanoma is 20.8 µM; in the assay on SNB-19 CNS it was above 100 µM.
For `Cn1c(COC(=O)NCCc2ccccn2)nc2c(N3CCOCC3)nc(Cl)nc21`, the GI50 with CCRF-CEM leukemia is 0.62 µM; in the assay on COLO 205 colon it was 1.72 µM; with EKVX NSCLC it was 1.7 µM; with K-562 leukemia, 1.63 µM; in the assay on OVCAR-4 ovarian it was 1.62 µM; with SF-295 CNS, 6.73 µM. In addition, the GI50 in the assay on SK-MEL-5 melanoma is 1.74 µM; in the assay with SNB-19 CNS, 3.97 µM; with UACC-257 melanoma it was 1.53 µM. Besides, the TGI in the assay on CCRF-CEM leukemia is 12.6 µM; in the assay on COLO 205 colon it was 3.61 µM; in the assay on EKVX NSCLC, 3.7 µM; in the assay on K-562 leukemia, 75.2 µM; in the assay with OVCAR-4 ovarian, 3.63 µM; with SF-295 CNS it was 19.8 µM. The TGI in the assay on SK-MEL-5 melanoma was determined as 3.29 µM; in the assay with SNB-19 CNS it was 16.1 µM; in the assay on UACC-257 melanoma, 3.28 µM.
With `COc1cc2c(cc1C)NC(=O)/C2=C/c1ccnc2ccccc12`, the GI50 with COLO 205 colon was 38.9 µM; in the assay on EKVX NSCLC, 25.5 µM; with K-562 leukemia it was 6.34 µM; with RPMI-8226 leukemia it was 19.7 µM; in the assay with SF-295 CNS, 25.3 µM; with SK-MEL-5 melanoma, 7.89 µM. The GI50 with SNB-19 CNS was 6.88 µM; with UACC-257 melanoma, 9.77 µM. Moreover, the TGI in the assay on COLO 205 colon is above 50 µM; in the assay on EKVX NSCLC it was above 50 µM; in the assay on K-562 leukemia, 33.6 µM; in the assay on RPMI-8226 leukemia, above 50 µM; with SF-295 CNS it was above 50 µM; with SK-MEL-5 melanoma it was 31.3 µM. Further, the TGI stood at 36.3 µM with SNB-19 CNS and 48.9 µM in the assay with UACC-257 melanoma.
As to `CCC[CH2][Sn-]([CH2]CCC)([CH2]CCC)[O]C(=O)C(C)C`, the GI50 in the assay on COLO 205 colon was 0.13 µM; in the assay on EKVX NSCLC it was 0.154 µM; with K-562 leukemia, 0.146 µM; in the assay on OVCAR-4 ovarian, 0.0538 µM; in the assay with RPMI-8226 leukemia, 0.109 µM; with SF-295 CNS it was 0.199 µM. The GI50 was 0.157 µM with SK-MEL-5 melanoma, 0.186 µM with SNB-19 CNS and 0.135 µM in the assay with UACC-257 melanoma. For the same molecule, the TGI came to 0.274 µM in the assay with COLO 205 colon; 0.362 µM in the assay with EKVX NSCLC; 0.315 µM in the assay on K-562 leukemia; 0.196 µM in the assay with OVCAR-4 ovarian; 0.366 µM with RPMI-8226 leukemia; 0.365 µM in the assay with SF-295 CNS. In addition, the TGI in the assay with SK-MEL-5 melanoma is 0.291 µM; with SNB-19 CNS, 0.351 µM; in the assay with UACC-257 melanoma it was 0.265 µM.
With `COc1cc(C)c2c(c1)CN1CN2Cc2cc(OC)cc(C)c21`, the TGI in the assay on CCRF-CEM leukemia, in the assay on COLO 205 colon, in the assay with EKVX NSCLC, in the assay with K-562 leukemia, in the assay on OVCAR-4 ovarian and in the assay with RPMI-8226 leukemia was above 100 µM in each case. The TGI in the assay with SF-295 CNS is above 100 µM; in the assay with SK-MEL-5 melanoma, 14.4 µM.
